# Counter-ions that a name gives are not always drawn. Like-named read-outs stand apart in the source and are kept apart here.
# Key:
# [1] = system: primary neuronal cultures from embryonic rat brains; assay: Rat oscillation assay (FLIPR, neuronal calcium oscillations); assay type: cell-based
# Summary of the method: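 Cortical neurons from E18 Wistar rat embryos, cultured 8–10 days at high density, loaded with 1 μM Fluo-8 AM; calcium oscillations recorded by FLIPR once per second in Mg-free HBSS with 2 mM CaCl2, 20 mM HEPES, pH 7.4. Two acquisitions ("Acute", 500 sec, compound added at 250 sec; "20 min"), ± Kv7 blocker XE-991.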
# [2] = system: DBA/2J mice; assay: Audiogenic seizure-sensitive mouse model of generalized convulsive seizures (AGS); assay type: in vivo; conditions: challenge 1 h, 90% MC 0.5% + 10% PEG400, read-out: Seizure stage [% vs. vehicle]; for change in vivo at 30 mg/kg: 30 mg/kg po
# Protocol: (§1) Formulation and Administration.
# (§2) Compounds were formulated in a 10% polyethylene glycol 400 (PEG 400)/90% aqueous solution of 0.5% methylcellulose (MC 0.5%). Firstly drugs are dissolved in PEG 400 and then suspended in MC 0.5% for oral gavage at X mg/5 mL/kg (X see table).
# Audiogenic Seizure-Sensitive Mouse Model of Generalized Convulsive Seizures
# 1. Procedure: Following two days of acclimatisation, auditory seizures are induced in male juvenile DBA/2J mice (22-24 days old). Each mouse is placed individually in the exposure chamber, an hemispheric acrylic glass dome (diameter: 50 cm) within a sound-attenuated box. The sound-attenuated box is equipped with two house lights and a camera system (Fire-I from Unibrain) in order to observe and record the behavioral seizure response. After 60 seconds of habituation, the stimulus, a mixed frequency tone of 15-20 kHz at 110 dB (SASLab Lite, Avisoft Bioacoustics), is played from a speaker that is placed on the top center of the dome. […] Seizures are classified as following: stage 0, normal behavior; stage 1, wild running; stage 2, generalized clonus; stage 3, tonic extension of the hind limbs.
# 2. Compounds testing: Acute compound effects on audiogenic generalized convulsive seizures are evaluated in independent groups of 8-10 mice randomly assigned. Following oral administration of compound or vehicle, the maximum seizure stage during sound exposure is assessed. Compounds are given 1 hour before exposure to the stimulus. Each mouse is exposed to the auditory stimulus only once and euthanized afterwards by CO2 inhalation.
# [3] = biological target: T1, Kv7.2/7.3 (Homo sapiens, UniProt O43525+O43526); assay: Kv7.2/3 assay (FLIPR potassium assay, agonist mode); assay type: cell-based; conditions: Kv7.2/7.3 activation; HEK293 cells, human KCNQ2 and KCNQ3
# T1 construct: expressed in transfected cells; host or cells: HEK293
# Protocol: HEK293 cells were stably transfected with the appropriate ion channel cDNA(s) (human KCNQ2 and KCNQ3 genes). Cells were cultured in Dulbecco's Modified Eagle Medium/Nutrient mixture F-12 (D-MEM/F-12) supplemented with 10% fetal bovine serum, 100 U/mL penicillin G sodium, 100 µg/mL streptomycin sulfate and selection antibiotics. FLIPR Test Procedure: For FLIPR assay, cells were plated in 384-well black clear-bottomed microtiter plates (BD Biocoat Poly-D-Lysine Multiwell Cell Culture Plate) at 15'000 to 30'000 cells per well. Cells were incubated at 37° C. overnight or until cells reached sufficient density in the wells (near confluent monolayer) to use in fluorescence assays. […] Assays were performed with the FLIPR potassium assay kit (Molecular Devices) according to the manufacturer's instructions. Dye-loading: Growth media was removed and replaced with 20 μL of dye loading buffer for 60 min at room temperature. FLIPR Recording (agonist mode): Stock solutions of test compounds were prepared at a concentration of 33.3 mM in DMSO. 5 μL of 5× concentrated test, vehicle, or control compounds solutions prepared in the stimulation buffer (K^+-free buffer with 5 mM TI^+) were added to each well and fluorescence recording was continued for 5 min. The agonist effect (EC50 and % effect) of test or control compounds on Kv7 channels was determined as follows: Raw data was exported using Screenworks® 4.2 software and the fluorescence traces were analysed using Microsoft Excel (Microsoft Corp., Redmond, Wash.). The test compounds responses were expressed as % of maximum response of the control compound Flupirtine (Sigma-Aldrich), which was tested at concentrations ranging from 0.03 to 100 μM. Concentration-response data were fitted to a Hill equation. Non-linear least squares fits were made assuming a simple binding model. If appropriate, fits were weighted by the standard deviation. No assumptions about the fit parameters were made; the fit parameters were determined by the algorithm.
# [4] = system: Wistar rats; assay: Amygdala-kindling rat model; assay type: in vivo; conditions: 1 mg/kg po, time of challenge 30 min, HCl salt, formulation 90% MC 0.5% + 10% PEG400
# Protocol: as §1, §2
# Amygdala-Kindling Rat Model:
# 1. Procedure: Adult male Wistar rats (Harlan Laboratories, Netherlands, or Charles Rivers, Germany; body weight 300-350 g) were stereotaxically implanted with twisted bipolar plastic-coated stainless steel electrode (MS333-2-BIU 10 mm, Plastics One) into the right basolateral amygdala under isoflurane anesthesia. To place the electrode, trepanations were made in the skull and the electrode was lowered into the right basolateral amygdala (from bregma: anteriorposterior (AP): −2.5 mm, medio-lateral (ML): −3.5 mm, dorso-ventral (DV): −8.6 mm; α=10°) and secured to the skull with screws and dental acrylate. After one week of recovery, they were handled daily and habituated over one week to the kindling set-up. Kindling procedure: For a kindling session each rat was placed individually into a smooth acrylic plastic, round-bottomed bowl (Ø 36 cm, height 36 cm, BASi movement-responsive caging system) and its intracranial implanted electrode was connected to the stimulator (STG4008, Multichannel Systems GmbH) and the recording devices (PowerLab 8/35, ADInstruments Ltd) via a cable (335-340/3 (C), Plastics One). For the kindling procedure, each rat was exposed once daily to an electrical stimulation and the behavioral symptoms of the evoked seizure were observed and classified according to the modified Racine scale (stage 0, arrest, wet dog shakes, normal behaviour; stage 1, facial twitches: nose, lips, eyes; stage 2, chewing, head nodding; stage 3, forelimb clonus; stage 4, rearing, falling on forelimbs; stage 5, rearing, falling on side or back, rolling). The electrical stimulus consists of a 1s-train of 50 Hz square-wave biphasic pulses of 1-ms duration at an intensity of 400 μA (suprathreshold intensity). […] Data Scoring and analysis. The duration of electroencephalographic seizures (afterdischarge, AD) was recorded using LabChart7 Pro software (ADlnstruments Ltd). Simultaneously, videos were recorded to evaluate seizure stage (SS).
# 2. Compound testing: Acute drug effects were evaluated in groups of 6-8 fully kindled rats in a randomized cross-over design with 48 h between drug and vehicle applications. Following oral administration of drug or vehicle, drug testing included determination of the afterdischarge threshold (the minimal stimulation intensity necessary to evoke an afterdischarge (electroencephalographically measured neuronal hyper-synchronous activity with an amplitude 2-times higher than baseline amplitude and a frequency of ≥1 Hz) of at least 3 sec duration) and monitoring electroencephalographic and behavioral correlates of the evoked seizure at ADT (afterdischarge threshold), including AD duration and SS, by a experimenter blind to treatment assignment.
# [5] = Rattus norvegicus, 20 min, AUC of fluorescence measured 20 min after compound addition, read-out: FLIPR: IC50 [nM] 20 min
# [6] = Rattus norvegicus, Acute phase, ratio of AUC fluorescence before and after compound addition, read-out: FLIPR: IC50 [nM] acute
smiles,measurement,setting,value
"O=C(NCc1cccc(OC(F)F)c1)NC1CC2(CC2)C1 [Example 155, 1-(3-Difluoromethoxy-benzyl)-3-spiro[2.3]hex-5-yl-urea]",IC50,[1]; [5],163 nM
same,IC50,[1]; [6],151 nM
same,change in vivo at 30 mg/kg,[2],-100%
"CC(NC(=O)NC1CC2(CCC2)C1)c1ccnc(OC(F)F)c1 (racemic) [Example 100 (HCl salt), (±)-1-[1-(2-Difluoromethoxy-pyridin-4-yl)-ethyl]-3-spiro[3.3]hept-2-yl-urea]",change in vivo at 33 mg/kg,[2]; 33 mg/kg po,-71%
"O=C(NCc1ccnc(OCC(F)(F)F)c1)NC1CC2(C1)CC(F)(F)C2 [Example 160, 1-(6,6-Difluoro-spiro[3.3]hept-2-yl)-3-[2-(2,2,2-trifluoro-ethoxy)-pyridin-4-ylmethyl]-urea]",IC50,[1]; [5],253 nM
same,IC50,[1]; [6],83 nM
same,change in vivo at 30 mg/kg,[2],-100%
"COCC(Oc1cc(CNC(=O)NC2CC3(CCC3)C2)ccn1)C(F)(F)F (single isomer, unassigned) [Example 172, 1-Spiro[3.3]hept-2-yl-3-[2-(2,2,2-trifluoro-1-methoxymethyl-ethoxy)-pyridin-4-ylmethyl]-urea]",IC50,"[1]; AUC of fluorescence measured 20 min after compound addition, read-out: FLIPR: IC50 [nM] 20 min",37 nM
same,IC50,"[1]; Acute phase, ratio of AUC fluorescence before and after compound addition, read-out: FLIPR: IC50 [nM] acute",38 nM
same,change in vivo at 30 mg/kg,[2],-81%
"O=C(NCc1cccc(C2(C(F)(F)F)CC2)c1)NC1CC2(CCC2)C1 [Example 37, 1-Spiro[3.3]hept-2-yl-3-[3-(1-trifluoromethyl-cyclopropyl)-benzyl]-urea]",IC50,[1]; [5],8.1 nM
same,IC50,[1]; [6],10 nM
same,EC50,[3],1.5 nM
"O=C(NCc1ccnc(OCC(F)(F)F)c1)NC1CC2(CC2)C1 [Example 159, 1-Spiro[2.3]hex-5-yl-3-[2-(2,2,2-trifluoro-ethoxy)-pyridin-4-ylmethyl]-urea]",IC50,[1]; [5],47 nM
same,IC50,[1]; [6],26 nM
same,change in vivo at 30 mg/kg,[2],-100%
"C[C@H](NC(=O)NC1CC2(CCC2)C1)c1ccnc(OC(F)F)c1 (single isomer, unassigned) [Example 168]",IC50,[1]; [5],3 nM
same,IC50,[1]; [6],3.7 nM
same,AD duration [% vs veh],[4],−84 % vs veh
same,Seizure stage [% vs veh],[4],−58 % vs veh
"C[C@H](NC(=O)NC1CC2(CCC2)C1)c1cc(OCC(F)(F)F)ncn1 (single isomer, unassigned) [Example 182]",IC50,[1]; [5],13 nM
same,IC50,[1]; [6],11 nM
same,change in vivo at 5 mg/kg,[2]; 5 mg/kg po,-100%
"O=C(NCc1ccnc(NCC(F)(F)F)c1)NC1CC2(CCC2)C1 [Example 116, 1-Spiro[3.3]hept-2-yl-3-[2-(2,2,2-trifluoro-ethylamino)-pyridin-4-ylmethyl]-urea]",IC50,[1]; [5],609 nM
same,IC50,[1]; [6],530 nM
same,EC50,[3],161 nM

# From patent US20230136562A1, “SPIROUREA DERIVATIVES” (Idorsia Pharmaceuticals Ltd, priority 2020, published 2023)
